According to patent US10717716B2, “1,3,4-oxadiazole derivative compounds as histone deacetylase 6 inhibitor, and the pharmaceutical composition comprising the same” (Chong Kun Dang Pharmaceutical Corp., priority 2015, dated 2020):

Columns and labels:
human recombinant HDAC1 = target: T1, human recombinant HDAC1 (Homo sapiens, UniProt Q13547); experiment: HDAC1 enzyme activity inhibition assay (HDAC Fluorimetric Drug Discovery Kit); assay type: biochemical; conditions: 30° C. 60 minutes
T1 construct: purchased Enzo Life Science BML-SE456
Summary of the method: (§1)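 Human recombinant HDAC1 or HDAC6 (0.3 μg) reacted with 10 μM Fluor de Lys-SIRT1 substrate and 5-fold compound dilutions for 60 min at 30 °C. Developer II added for 30 min, fluorescence read at Ex 360/Em 460; IC50 calculated from the readings.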

human recombinant HDAC6 = target: T2, human recombinant HDAC6 (Homo sapiens, UniProt Q9UBN7); experiment: HDAC6 enzyme activity inhibition assay (HDAC Fluorimetric Drug Discovery Kit); assay type: biochemical; conditions: for HDAC6 selectivity (fold): HDAC6 over HDAC1; for IC50: human recombinant HDAC6, same protocol as HDAC1, read-out: HDAC6
T2 construct: purchased Calbiochem 382180
T2 sequence (Q9UBN7 1-1215): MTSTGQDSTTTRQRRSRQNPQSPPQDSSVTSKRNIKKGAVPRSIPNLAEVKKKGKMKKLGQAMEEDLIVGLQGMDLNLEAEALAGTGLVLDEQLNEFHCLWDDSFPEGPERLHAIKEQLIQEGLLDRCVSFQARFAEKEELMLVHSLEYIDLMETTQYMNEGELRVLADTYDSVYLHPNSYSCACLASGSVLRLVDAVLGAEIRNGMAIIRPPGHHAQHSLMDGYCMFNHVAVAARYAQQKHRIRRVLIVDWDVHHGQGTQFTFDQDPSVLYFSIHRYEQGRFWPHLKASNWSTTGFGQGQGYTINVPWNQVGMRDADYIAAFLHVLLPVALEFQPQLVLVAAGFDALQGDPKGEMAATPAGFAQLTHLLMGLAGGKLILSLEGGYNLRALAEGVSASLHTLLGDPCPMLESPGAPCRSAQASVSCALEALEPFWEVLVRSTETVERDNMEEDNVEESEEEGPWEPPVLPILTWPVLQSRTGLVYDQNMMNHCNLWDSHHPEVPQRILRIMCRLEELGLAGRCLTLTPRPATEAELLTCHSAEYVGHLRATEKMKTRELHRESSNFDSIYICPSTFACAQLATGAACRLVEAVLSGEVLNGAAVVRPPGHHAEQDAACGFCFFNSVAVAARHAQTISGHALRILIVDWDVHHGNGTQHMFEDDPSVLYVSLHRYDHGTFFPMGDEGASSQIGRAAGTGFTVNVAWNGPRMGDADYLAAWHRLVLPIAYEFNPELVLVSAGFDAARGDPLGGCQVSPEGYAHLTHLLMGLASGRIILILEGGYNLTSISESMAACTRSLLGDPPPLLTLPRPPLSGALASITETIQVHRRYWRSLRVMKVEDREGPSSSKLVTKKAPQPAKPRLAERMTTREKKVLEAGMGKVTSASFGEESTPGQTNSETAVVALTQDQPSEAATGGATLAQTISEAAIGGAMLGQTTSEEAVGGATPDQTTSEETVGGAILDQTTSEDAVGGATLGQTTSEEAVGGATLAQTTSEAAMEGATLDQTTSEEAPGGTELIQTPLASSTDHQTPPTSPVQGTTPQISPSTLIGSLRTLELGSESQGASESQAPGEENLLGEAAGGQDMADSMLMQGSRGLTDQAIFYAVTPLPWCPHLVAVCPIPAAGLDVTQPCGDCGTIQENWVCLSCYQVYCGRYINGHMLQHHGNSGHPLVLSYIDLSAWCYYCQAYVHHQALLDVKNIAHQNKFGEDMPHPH
Summary of the method: as §1

[1] = human recombinant HDAC1, Fluor de Lys substrate 10 μM
[2] = human recombinant HDAC1, Fluor de Lys substrate

T1 sequence (Q13547 whole entry): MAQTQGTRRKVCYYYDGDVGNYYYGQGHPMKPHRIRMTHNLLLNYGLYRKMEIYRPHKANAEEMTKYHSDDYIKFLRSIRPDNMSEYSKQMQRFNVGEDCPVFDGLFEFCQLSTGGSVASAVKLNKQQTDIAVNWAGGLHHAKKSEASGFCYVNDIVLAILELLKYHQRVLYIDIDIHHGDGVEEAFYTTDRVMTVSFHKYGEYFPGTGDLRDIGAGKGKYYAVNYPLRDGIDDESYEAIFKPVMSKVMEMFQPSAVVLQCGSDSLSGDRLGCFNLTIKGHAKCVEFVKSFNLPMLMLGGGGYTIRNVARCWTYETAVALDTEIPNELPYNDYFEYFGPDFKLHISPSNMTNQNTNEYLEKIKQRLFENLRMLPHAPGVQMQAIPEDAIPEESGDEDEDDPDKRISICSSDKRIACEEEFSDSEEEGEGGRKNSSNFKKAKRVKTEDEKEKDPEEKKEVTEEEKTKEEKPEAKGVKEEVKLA

Row | Compound | IC50 (human recombinant HDAC1; [1]) | HDAC6 selectivity (fold) (human recombinant HDAC6) | IC50 (human recombinant HDAC6) | IC50 (human recombinant HDAC1; [2])
1 | CCN1CCN(C(=O)N(Cc2ccc(-c3nnc(C(F)F)o3)cc2F)c2cccc(Cl)c2)CC1 [Compound 21878, N-(3-Chlorophenyl)-N-(4-(5-(difluoromethyl)-1,3,4-oxadiazol-2-yl)-2-fluorobenzyl)-4-ethylpiperazine-1-carboxamide] | 21.5 µM | 522 fold | 0.041 µM | 
2 | CCN1CCN(C(=O)N(Cc2ccc(-c3nnc(C(F)F)o3)cn2)c2cccc(Cl)c2)CC1 [Compound 21879, N-(3-Chlorophenyl)-N-((5-(5-(difluoromethyl)-1,3,4-oxadiazol-2-yl)pyridin-2-yl)methyl)-4-ethylpiperazine-1-carboxamide] | 27.9 µM | 1064 fold | 0.026 µM | 
3 | CCN1CCN(C(=O)N(Cc2ccc(-c3nnc(C(F)F)o3)cc2)c2ccc(Cl)cc2)CC1 [Compound 21880, N-(4-Chlorophenyl)-N-(4-(5-(difluoromethyl)-1,3,4-oxadiazol-2-yl)benzyl)-4-ethylpiperazine-1-carboxamide] | 44.4 µM | 467 fold | 0.095 µM | 
4 | CCN1CCN(C(=O)N(Cc2ccc(-c3nnc(C(F)F)o3)cc2)c2ccc(OC)cc2)CC1 [Compound 21892, N-(4-(5-(Difluoromethyl)-1,3,4-oxadiazol-2-yl)benzyl)-4-ethyl-N-(4-methoxyphenyl)piperazine-1-carboxamide] | 48.7 µM | 548 fold | 0.089 µM | 
5 | CCN1CCN(C(=O)N(Cc2ccc(-c3nnc(C(F)F)o3)cc2F)c2ccc(OC)cc2)CC1 [Compound 21893, N-(4-(5-(Difluoromethyl)-1,3,4-oxadiazol-2-yl)-2-fluorobenzyl)-4-ethyl-N-(4-methoxyphenyl)piperazine-1-carboxamide] | 37.6 µM | 640 fold | 0.059 µM | 
6 | CCN1CCN(C(=O)N(Cc2ccc(-c3nnc(C(F)F)o3)cn2)c2ccc(OC)cc2)CC1 [Compound 21894, N-((5-(5-(Difluoromethyl)-1,3,4-oxadiazol-2-yl)pyridin-2-yl)methyl)-4-ethyl-N-(4-methoxyphenyl)piperazine-1-carboxamide] | 76.3 µM | 1588 fold | 0.048 µM | 
7 | O=C(N1CCS(=O)(=O)CC1)N(Cc1ccc(-c2nnc(C(F)F)o2)cc1F)c1ccc(CN2CCN(C3COC3)CC2)cc1 [Compound 21896, N-(4-(5-(difluoromethyl)-1,3,4-oxadiazol-2-yl)-2-fluorobenzyl)-N-(4-((4-(oxetan-3-yl)piperazin-1-yl)methyl)phenyl)thiomorpholine-4-carboxamide 1,1-dioxide] | 28.5 µM | 82 fold | 0.346 µM | 
8 | CC(C)(C)CN1CCN(Cc2ccc(N(Cc3ccc(-c4nnc(C(F)(F)F)o4)cc3F)C(=O)N3CCS(=O)(=O)CC3)cc2)CC1 [Compound 21897, N-(2-fluoro-4-(5-(trifluoromethyl)-1,3,4-oxadiazol-2-yl)benzyl)-N-(4-((4-neopentylpiperazin-1-yl)methyl)phenyl)thiomorpholine-4-carboxamide 1,1-dioxide] | 68.1 µM | 140 fold | 0.487 µM | 

The remaining lines, values ahead:

Row | IC50 (human recombinant HDAC1; [1]) | HDAC6 selectivity (fold) (human recombinant HDAC6) | IC50 (human recombinant HDAC6) | IC50 (human recombinant HDAC1; [2]) | Compound
9 | 40.6 µM | 164 fold | 0.247 µM |  | O=C(N1CCS(=O)(=O)CC1)N(Cc1ccc(-c2nnc(C(F)(F)F)o2)cc1F)c1ccc(CN2CCN(C3COC3)CC2)cc1 [Compound 21898, N-(2-fluoro-4-(5-(trifluoromethyl)-1,3,4-oxadiazol-2-yl)benzyl)-N-(4-((4-(oxetan-3-yl)piperazin-1-yl)methyl)phenyl)thiomorpholine-4-carboxamide 1,1-dioxide]
10 | 75.7 µM | 1364 fold | 0.055 µM |  | CCN1CCN(Cc2ccc(N(Cc3ccc(-c4nnc(C(F)F)o4)cc3F)C(=O)N3CCS(=O)(=O)CC3)cc2)CC1 [Compound 21899, N-(4-(5-(difluoromethyl)-1,3,4-oxadiazol-2-yl)-2-fluorobenzyl)-N-(4-((4-ethylpiperazin-1-yl)methyl)phenyl)thiomorpholine-4-carboxamide 1,1-dioxide]
11 | 56.1 µM | 1454 fold | 0.039 µM |  | O=C(N1CCN(C2COC2)CC1)N(Cc1ccc(-c2nnc(C(F)F)o2)cn1)c1ccccc1 [Compound 21905, N-((5-(5-(Difluoromethyl)-1,3,4-oxadiazol-2-yl)pyridin-2-yl)methyl)-4-(oxetan-3-yl)-N-phenylpiperazine-1-carboxamide]
12 |  | 35 fold | 0.419 µM | 14.6 µM | O=C(N1CCOCC1)N(Cc1ccc(-c2nnc(C(F)(F)F)o2)cc1F)c1ccc(F)c(Cl)c1 [Compound 21930, N-(3-chloro-4-fluorophenyl)-N-(2-fluoro-4-(5-(trifluoromethyl)-1,3,4-oxadiazol-2-yl)benzyl)morpholine-4-carboxamide]
13 |  | 446 fold | 0.103 µM | 46 µM | O=C(N1CCN(C2COC2)CC1)N(Cc1ccc(-c2nnc(C(F)F)o2)cn1)c1ccc(F)cc1 [Compound 21941, N-((5-(5-(Difluoromethyl)-1,3,4-oxadiazol-2-yl)pyridin-2-yl)methyl)-N-(4-fluorophenyl)-4-(oxetan-3-yl)piperazine-1-carboxamide]
14 |  | 611 fold | 0.048 µM | 29.6 µM | O=C(N1CCN(C2COC2)CC1)N(Cc1ccc(-c2nnc(C(F)F)o2)cc1F)c1cccc(Cl)c1 [Compound 21943, N-(3-Chlorophenyl)-N-(4-(5-(difluoromethyl)-1,3,4-oxadiazol-2-yl)-2-fluorobenzyl)-4-(oxetan-3-yl)piperazine-1-carboxamide]
15 |  | 188 fold | 0.246 µM | 46.3 µM | COc1cccc(N(Cc2ccc(-c3nnc(C(F)F)o3)cc2)C(=O)N2CCN(C3COC3)CC2)c1 [Compound 21948, N-(4-(5-(Difluoromethyl)-1,3,4-oxadiazol-2-yl)benzyl)-N-(3-methoxyphenyl)-4-(oxetan-3-yl)piperazine-1-carboxamide]
16 |  | 383 fold | 0.126 µM | 48.3 µM | COc1cccc(N(Cc2ccc(-c3nnc(C(F)F)o3)cc2F)C(=O)N2CCN(C3COC3)CC2)c1 [Compound 21949, N-(4-(5-(Difluoromethyl)-1,3,4-oxadiazol-2-yl)-2-fluorobenzyl)-N-(3-methoxyphenyl)-4-(oxetan-3-yl)piperazine-1-carboxamide]
17 |  | 245 fold | 0.145 µM | 35.7 µM | O=C(N1CCN(C2COC2)CC1)N(Cc1ccc(-c2nnc(C(F)F)o2)cc1)c1ccccc1 [Compound 21954, N-(4-(5-(Difluoromethyl)-1,3,4-oxadiazol-2-yl)benzyl)-4-(oxetan-3-yl)-N-phenylpiperazine-1-carboxamide]
18 |  | 480 fold | 0.045 µM | 21.4 µM | O=C(NCCN1CCS(=O)(=O)CC1)N(Cc1ccc(-c2nnc(C(F)F)o2)cc1F)c1ccccc1 [Compound 21985, 1-(4-(5-(Difluoromethyl)-1,3,4-oxadiazol-2-yl)-2-fluorobenzyl)-3-(2-(1,1-dioxidothiomorpholino)ethyl)-1-phenylurea]
